Experimental data from article PMC3235552, “Fragment library screening reveals remarkable similarities between the G protein-coupled receptor histamine H4 and the ion channel serotonin 5-HT3A” (Bioorganic & Medicinal Chemistry Letters, 2011).
Marks after values point to notes of the source that are not given here.

Experiments:
[1] = biological target: T1, human H4R (Homo sapiens, UniProt Q9H3N8); test: H4R radioligand displacement of [3H]histamine, HEK293 membranes; type: binding; set-up: expressed in transfected cells; host or cells: HEK293T (main text: HEK293), transient transfection with polyethyleneimine; details: for Affinity (pKi) H4R: displacement of [3H]histamine, membranes of HEK293 cells transiently expressing human H4R, mean ± SEM, at least three measurements, n.a. = non active
T1 sequence (Q9H3N8 whole entry, the tested form may be a part): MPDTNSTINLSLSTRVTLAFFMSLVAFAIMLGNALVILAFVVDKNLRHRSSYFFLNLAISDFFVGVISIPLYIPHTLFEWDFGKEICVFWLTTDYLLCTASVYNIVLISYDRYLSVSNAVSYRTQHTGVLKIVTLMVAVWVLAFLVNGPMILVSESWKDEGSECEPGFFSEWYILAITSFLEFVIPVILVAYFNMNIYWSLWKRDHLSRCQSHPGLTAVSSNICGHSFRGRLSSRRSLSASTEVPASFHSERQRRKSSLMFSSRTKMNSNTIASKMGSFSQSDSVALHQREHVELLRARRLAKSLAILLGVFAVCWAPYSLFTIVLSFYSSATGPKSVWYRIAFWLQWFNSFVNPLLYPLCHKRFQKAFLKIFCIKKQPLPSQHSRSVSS
Procedure: For the H4R fragment screen a radioligand displacement study was performed at a 10 μM fragment concentration. Hits were assigned when the fragment displaced 50% or more of the radioligand, resulting in 56 hits (hit rate: 6%). Radioligand binding was measured by displacement of [^3H]histamine using membranes of HEK293 cells transiently expressing the human H4R.[17] For the hit compounds, affinities were determined by subsequent radioligand displacement studies.
The H4R radioligand displacement screen was performed on homogenized HEK293T cells transiently expressing the human H4R. To this end, cells were transfected with 1.25 µg H4R plasmid per million cells using the 25-kDa linear polyethyleneimine. Two days after transfection, cells were collected, washed in PBS, and stored as pellets at -20 °C. Pellets were dissolved in binding buffer and homogenized using a teflon/glass followed by sonification for 3s. Cell homogenates were incubated in 96 well plates with 10µM (final) fragment and 10nM [^3H]-histamine (13.4 Ci/mmol, Perkin Elmer) and for 1.5 hours at room temperature on a table shaker (750rpm). Incubations were terminated by rapid filtration through polyethyleneimene-coated GF/C (Perkin Elmer) filter plates. Bound radioactivity was quantified in a Wallac microbeta counter (Perkin Elmer).

[2] = biological target: T2, human 5-HT3AR (Homo sapiens, UniProt P46098); test: 5-HT3AR radioligand displacement of [3H]granisetron, HEK293 membranes; type: binding; details: for Affinity (pKi) 5-HT3AR: displacement of [3H]granisetron, membranes of HEK293 cells expressing human 5-HT3AR, mean ± SEM, at least two measurements, n.a. = non active
T2 construct: transfected with the human 5-HT3A subunit (PDB ID: P46098) in pcDNA3.1; expressed in transfected cells; cDNA in pcDNA3.1
T2 sequence (P46098 24-478): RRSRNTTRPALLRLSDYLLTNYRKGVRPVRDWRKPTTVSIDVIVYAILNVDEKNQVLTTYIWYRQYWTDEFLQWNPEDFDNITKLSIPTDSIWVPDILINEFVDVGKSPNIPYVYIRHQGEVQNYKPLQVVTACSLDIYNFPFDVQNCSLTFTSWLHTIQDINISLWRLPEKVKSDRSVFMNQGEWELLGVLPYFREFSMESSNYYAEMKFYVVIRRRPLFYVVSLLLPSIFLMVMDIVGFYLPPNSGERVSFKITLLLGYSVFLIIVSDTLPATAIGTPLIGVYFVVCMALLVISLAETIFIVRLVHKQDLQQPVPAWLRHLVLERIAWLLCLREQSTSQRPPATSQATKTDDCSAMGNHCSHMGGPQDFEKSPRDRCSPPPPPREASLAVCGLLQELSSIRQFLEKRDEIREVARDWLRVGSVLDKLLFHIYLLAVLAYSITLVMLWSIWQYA
Procedure: For the 5-HT3AR we performed a high throughput functional fragment screen[18] using a fluorescent readout (Flex Station) applying a fluorescent membrane potential dye. […] From this fragment screening we identified 70 hits for the 5-HT3A receptor (hit rate: 7%). Fragments were screened at a concentration of 100 μM using stably expressed human 5-HT3AR in HEK293 cells. Binding affinities of hits were determined using radioligand binding studies measuring [^3H]granisetron binding using membranes of HEK293 cells expressing the human 5-HT3AR.[18]
5-HT3AR were expressed in HEK293 cells transfected with the human 5-HT3A subunit ([…]: P46098) in pcDNA3.1 (Invitrogen Ltd., Paisley, UK). Stably expressing cells were clonally selected with the addition of the G-418 (Sigma Aldrich Company ltd., Dorset, UK). Cells were routinely grown in 90 mm culture dishes containing Dubelco’s Modified Eagle’s Medium DMEM / Glutamax (Gibco, Invitrogen Ltd.) and passaged when 90% confluency was reached.
[picture] For radioligand binding HEK293 cells at 90% confluency were scraped into 1 ml of ice-cold HEPES buffer (10 mM, pH 7.4) and frozen. After thawing, they were washed with HEPES buffer and homogenised using a fine-bore syringe. 50 µl of cell membranes were incubated in 0.5 ml HEPES buffer containing 0.7 nM [^3H]granisetron (~ Kd) and differing concentrations of the test compound. Competition binding (8 point) was performed on at least three separate plates of transfected cells. Non-specific binding was determined using 1 mM quipazine. Reactions were incubated for at least 24 h at 4°C, to allow compounds with slow kinetics to equilibrate. Incubations were terminated by vacuum filtration using a Brandel cell harvester (Alpha Biotech Ltd., London, UK) onto GF/B filters pre-soaked in 0.3 % polyethyleneimine. Radioactivity was determined by scintillation counting using a Beckman BCLS6500 (Fullerton, California, USA). Data were fit according to the equation:
where L is the concentration of ligand present; BL is the binding in the presence of ligand concentration L; Bmin is the binding when L = 0; Bmax is the binding when L=∞, L50 is the concentration of L which gives a binding equal to (Bmax + Bmin)/2; and nH is the Hill coefficient. Ki values were estimated from IC50 values using the Cheng-Prusoff equation^5
where Ki is the equilibrium dissociation constant for binding of the unlabeled antagonist, IC50 is the concentration of antagonist that blocks half the specific binding, [L] is the free concentration of radioligand and Kd is the equilibrium dissociation constant of the radioligand.

[3] = biological target: T1, human H4R; test: H4R radioligand binding, membranes of SK-N-MC cells; set-up: expressed in transfected cells; details: membranes of SK-N-MC cells transiently expressing human H4R; mean ± SEM, at least three measurements
[4] = biological target: H4R; set-up: method as in PMID 18983139, PMID 19413570; details: Abbott H4R ligands; cited from earlier work

Row | Structure (SMILES) | Affinity (pKi) H4R [1] | Affinity (pKi) 5-HT3AR [2] | other results
1 | c1cncc(Cc2c[nH]cn2)c1 [compound 1] | 7.0 ± 0.1 | – | –
2 | CN1CCC(=Cc2nc3cc(Cl)ccc3[nH]2)CC1 [compound 9] | – | 8.8 ± 0.1 | selectivity for 5-HT3R over H4R ([2]; from affinities of Table 1): 500 fold; Affinity (pKi) H4R [3]: 6.1 ± 0.1 ^b
3 | Nc1ccc2cc3ccccc3nc2c1 [compound 5] | – | 6.0 ± 0.0 | –
4 | Nc1nc2c(c(N3CCNCC3)n1)CCCc1ccccc1-2 [compound 13] | – | – | H4R pKi [4]: 7.1
5 | CN1CCN(c2ccc3cc(Cl)ccc3n2)CC1 [compound 7] | 6.2 ± 0.0 | 6.6 ± 0.3 | affinities for 5-HT3R and H4R compared ([2]; from affinities of Table 1): comparable affinities
6 | CN1CCN(c2cc(-c3ccccc3)nc(N)n2)CC1 [compound 10] | 8.2 ± 0.1 | 5.9 ± 0.1 | selectivity for H4R over 5-HT3R ([1]; from affinities of Table 1): 200 fold
7 | CN1CCN(c2cc(-c3ccccc3)ncn2)CC1 [compound 3] | 6.7 ± 0.0 | – | –
8 | N=C(N)NCCCc1ccccc1 [compound 6] | – | 6.1 ± 0.1 | –
9 | CN1CCN(c2nc3ccccc3nc2O)CC1 [compound 8] | 7.2 ± 0.0 | 7.9 ± 0.3 | affinities for 5-HT3R and H4R compared ([2]; from affinities of Table 1): comparable affinities
10 | c1ccc(CNCCc2c[nH]cn2)cc1 [compound 2] | 6.2 ± 0.1 | – | –
11 | c1nc(CC2CCCCC2)c[nH]1 [compound 11] | – | 5.9 ± 0.3 | affinities for 5-HT3R and H4R compared ([2]; from affinities of Table 1): comparable affinities; Affinity (pKi) H4R [3]: 6.2 ± 0.1 ^b
12 | Clc1ccc(C2CCNC2)cc1 (stereo not shown) [compound 4] | – | 6.1 ± 0.2 | –
